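These data come from cells grown in 96-well plates and exposed to compound for 48 hours at five concentrations. GI50 = concentration required for 50% inhibition of growth.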 Activity calls are given as the source filed them. No stated cut-off is given here; in the data, active = GI50 up to about 1.1 µM and inactive = higher.
Tests used:
Experiment in all cases: NCI anticancer screen, dose series, 48 h
A549 = tested on: A549
UACC-257 = tested on: UACC-257
IGROV-1 = tested on: IGROV-1
NCI-H226 = tested on: NCI-H226
SK-OV-3 = tested on: SK-OV-3
UO-31 = tested on: UO-31
HOP-62 = tested on: HOP-62
PC-3 = tested on: PC-3
BT-549 = tested on: BT-549
A498 = tested on: A498
MDA-MB-231 = tested on: MDA-MB-231
HCT-116 = tested on: HCT-116
K562 = tested on: K562
SW-620 = tested on: SW-620
OVCAR-3 = tested on: OVCAR-3
ACHN = tested on: ACHN
COLO 205 = tested on: COLO 205
M14 = tested on: M14
U-251 = tested on: U-251
SNB-75 = tested on: SNB-75

Measured: GI50

CCCn1c(C23CC4CC(CC(C4)C2)C3)nc2ccc(Cl)cc2c1=O
inactive: A549 31.2 µM | UACC-257 33.2 µM | IGROV-1 51.9 µM | NCI-H226 > 100 µM | SK-OV-3 49.5 µM | UO-31 15.6 µM | HOP-62 23.4 µM | PC-3 37.1 µM | BT-549 44.2 µM | A498 17.9 µM | MDA-MB-231 > 100 µM | HCT-116 30.1 µM | K562 43.6 µM | SW-620 > 100 µM | OVCAR-3 49 µM | ACHN 21.2 µM | COLO 205 37.2 µM | M14 26.1 µM | U-251 45.1 µM

O=C(/N=N/c1ccc([N+](=O)[O-])cc1)NNc1ccc([N+](=O)[O-])cc1
inactive: A549 26 µM | UACC-257 24.3 µM | IGROV-1 12.8 µM | NCI-H226 19.5 µM | UO-31 10.9 µM | HOP-62 13.3 µM | SNB-75 23.9 µM | PC-3 9.62 µM | BT-549 15.5 µM | A498 4.46 µM | MDA-MB-231 24 µM | HCT-116 11.8 µM | K562 11.4 µM | SW-620 18.7 µM | OVCAR-3 20.5 µM | ACHN 13.5 µM | M14 13.5 µM | U-251 18.9 µM

N#CC(C#N)=C1C(=Cc2ccc(OCCCCCCCCCCSSCCCCCCCCCCOc3ccc(C=C4C(=C(C#N)C#N)c5ccccc5C4=C(C#N)C#N)cc3)cc2)C(=C(C#N)C#N)c2ccccc21
inactive: A549 15.5 µM | UACC-257 39.5 µM | IGROV-1 42 µM | NCI-H226 24 µM | UO-31 18.2 µM | HOP-62 22.5 µM | SNB-75 25.7 µM | PC-3 20.8 µM | BT-549 17 µM | A498 18.7 µM | MDA-MB-231 28.6 µM | HCT-116 17.1 µM | K562 23.7 µM | SW-620 23.3 µM | OVCAR-3 29.7 µM | ACHN 36.7 µM | M14 20.3 µM | U-251 19.5 µM

CSc1ncnc2c1cnn2Cc1cn(COCC(O)CO)nn1 (stereo unspecified)
inactive: A549 > 100 µM | UACC-257 > 100 µM | IGROV-1 > 100 µM | NCI-H226 > 100 µM | SK-OV-3 > 100 µM | UO-31 > 100 µM | HOP-62 > 100 µM | PC-3 > 100 µM | BT-549 > 100 µM | A498 > 100 µM | MDA-MB-231 > 100 µM | HCT-116 > 100 µM | SW-620 > 100 µM | OVCAR-3 > 100 µM | ACHN > 100 µM | COLO 205 > 100 µM | M14 > 100 µM | U-251 > 100 µM

Cc1nc(C)c(N2CCN(Cc3ccccc3)CC2)c(O)n1
inactive: A549 > 100 µM | UACC-257 > 100 µM | IGROV-1 > 100 µM | NCI-H226 > 100 µM | SK-OV-3 > 100 µM | UO-31 > 100 µM | HOP-62 > 100 µM | PC-3 > 100 µM | BT-549 > 100 µM | A498 > 100 µM | MDA-MB-231 > 100 µM | HCT-116 > 100 µM | K562 > 100 µM | SW-620 > 100 µM | OVCAR-3 > 100 µM | ACHN > 100 µM | COLO 205 > 100 µM | M14 > 100 µM | U-251 > 100 µM

Nc1nc(-c2ccccc2)nc2c1[n+]([O-])c1ccccc1[n+]2[O-]
inactive: A549 > 100 µM | UACC-257 > 100 µM | IGROV-1 > 100 µM | NCI-H226 > 100 µM | SK-OV-3 > 100 µM | UO-31 > 100 µM | HOP-62 > 100 µM | PC-3 > 100 µM | BT-549 > 100 µM | A498 > 100 µM | MDA-MB-231 > 100 µM | HCT-116 > 100 µM | K562 > 100 µM | SW-620 > 100 µM | OVCAR-3 > 100 µM | ACHN > 100 µM | COLO 205 > 100 µM | M14 > 100 µM | U-251 > 100 µM

From ChEMBL document CHEMBL1201862, “PubChem BioAssay data set” (2004)
